In patent US10947252B2, “Inhibitors of KEAP1-Nrf2 protein-protein interaction” (Janssen Pharmaceutica NV, priority 2018, dated 2021):

Legend:
[1] = system: Glo-Response ARE-luc2P HEK293 cell line; test: ARE luciferase reporter cell-based assay; settings: average of results obtained;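 note: luciferase signal tracks Nrf2 activation of the ARE once compounds disrupt KEAP1-Nrf2 binding, read with One-Glo reagent, DMSO serving as low control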
[2] = biological target: Kelch domain of human KEAP1 (321-624 aa) (Homo sapiens (Human), UniProt Q14145); test: KEAP1 KELCH ThermoFluor binding assay; settings: KEAP Kelch […], 1,8-ANS, pH 7.0, average of results obtained, read-out: Tf Kd;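 note: Ligand-induced melting temperature shift of E. coli-expressed KEAP1 Kelch protein, Kd estimated from concentration-response curves of ΔTm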
Kelch domain of human KEAP1 (321-624 aa), sequence (Q14145 321-624): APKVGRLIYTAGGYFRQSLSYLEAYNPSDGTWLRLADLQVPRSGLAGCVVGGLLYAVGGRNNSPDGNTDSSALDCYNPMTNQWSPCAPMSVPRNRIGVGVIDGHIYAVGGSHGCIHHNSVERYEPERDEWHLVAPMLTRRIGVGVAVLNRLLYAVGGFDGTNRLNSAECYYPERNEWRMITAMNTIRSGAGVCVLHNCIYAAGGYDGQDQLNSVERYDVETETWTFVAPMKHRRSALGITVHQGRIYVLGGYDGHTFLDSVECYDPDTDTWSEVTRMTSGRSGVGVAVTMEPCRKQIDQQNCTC

| Kd [2] [nM] | Compound | EC50 ([1]; Homo sapiens, HEK293, 24 h) [nM] | EC50 ([1]; 24 hours) [nM] |
| --- | --- | --- | --- |
| < 1 | Cc1ccc([C@@H](c2cc(C)n3c(C(F)(F)F)nnc3c2C)C(C)C(=O)O)cc1CN1C[C@@H]2CCCCN2c2ncccc2S1(=O)=O (relative stereo) [Example 134, (3*S)-3-(5,8-Dimethyl-3)-(trifluoromethyl)-[1,2,4-triazolo[4,3-a]pyridine-7-yl)-3-(3-(((*S)-5,5-dioxido-7,7a,8,9,10,11-hexahydro-6H-dipyrido[2,1-d:2′,3′-][1,2,5]thiadiazepin-6-yl)methyl)-4-methylphenyl)-2-methylpropanoic Acid] | 61.3 |  |
| 1360 | Cc1ccc([C@@H](c2ccn3c(C(F)(F)F)nnc3c2C)C(C)(C)C(=O)O)cc1CN1CC2(CCOCC2)Oc2nc(OCCCOCCCO)ccc2S1(=O)=O (single isomer, unassigned) [Example 607, (*S)-3-(3-((7′-(3-(3-Hydroxypropoxy)propoxy)-1′,1′-dioxido-2,3,5,6-tetrahydrospiro[pyran-4,4′-pyrido[2,3-b][1,4,5]oxathiazepin]-2′(3′H)-yl)methyl)-4-methylphenyl)-2,2-dimethyl-3-(8-methyl-3-(trifluoromethyl)-[1,2,4]triazolo[4,3-a]pyridin-7-yl)propanoic Acid] | 7620 |  |
| 4.8 | Cc1ccc([C@@H](CC(=O)O)c2ccc3c(nnn3CC3CC3)c2C)cc1CN1CC2(COC2)Oc2ccccc2S1(=O)=O (single isomer, unassigned) [Example 76, (*R)-3-(1-(cyclopropylmethyl)-4-methyl-1H-benzo[d][1,2,3]triazol-5-yl)-3-(3-((1′,1′-dioxidospiro[benzo[b][1,4,5]oxathiazepin-4,3′-oxetan]-2,(3H)-yl)methyl)-4-methylphenyl)propanoic Acid] | 136 |  |
| < 1 | Cc1ccc([C@@H](c2ccn3c(C(F)(F)F)nnc3c2C)C(C)(C)C(=O)O)cc1CN1C[C@@]2(CCOC2)Oc2ncccc2S1(=O)=O (single isomer, unassigned) [Example 382, (*S)-3-(3-(((*R)-1′,1′-Dioxido-4,5-dihydro-2H-spiro[furan-3,4′-pyrido[2,3-b][1,4,5]oxathiazepin]-2′(3′H)-yl)methyl)-4-methylphenyl)-2,2-dimethyl-3-(8-methyl-3-(trifluoromethyl)-[1,2,4]triazolo[4,3-a]pyridin-7-yl)propanoic Acid] | 1.8 |  |
| < 1 | Cc1ccc([C@@H](CC(=O)O)c2ccn3c(C(F)(F)F)nnc3c2C)nc1CN1C[C@@H]2CCCCN2c2ncc(C#N)cc2S1(=O)=O (single isomer, unassigned) [Example 34, (*S)-3-(6-(((*S)-3-Cyano-5,5-dioxido-7,7a,8,9,10,11-hexahydro-6H-dipyrido[2,1-d:2′,3′-f][1,2,5]thiadiazepin-6-yl)methyl)-5-methylpyridin-2-yl)-3-(8-methyl-3-(trifluoromethyl)-[1,2,4]triazolo[4,3-a]pyridin-7-yl)propanoic Acid] | 119 |  |
| < 1 | Cc1ccc([C@@H](c2ccn3c(C(F)(F)F)nnc3c2C)C(C)(C)C(=O)O)cc1CN1CC2(CCOCC2)Oc2nc(N[C@H](C)CCO)ccc2S1(=O)=O (single isomer, unassigned) [Example 119, (*S)-3-(3-((7′-(((R)-4-Hydroxybutan-2-yl)amino)-1′,1′-dioxido-2,3,5,6-tetrahydrospiro[pyran-4,4′-pyrido[2,3-b][1,4,5]oxathiazepin]-2′(3′H)-yl)methyl)-4-methylphenyl)-2,2-dimethyl-3-(8-methyl-3-(trifluoromethyl)-[1,2,4[triazolo[4,3-a]pyridine-7-yl)propanoic Acid] | 166 |  |
| < 1 | Cc1ccc(C(CC(=O)O)c2ccn3c(C(F)(F)F)nnc3c2C)nc1CN1CC2(COC2)Oc2ccccc2S1(=O)=O (stereo not shown) [Example 484, 3-(6-((1,1-Dioxidospiro[benzo[b][1,4,5]oxathiazepine-4,3′-oxetan]-2(3H)-yl)methyl)-5-methylpyridin-2-yl)-3-(8-methyl-3-(trifluoromethyl)-[1,2,4]triazolo[4,3-a]pyridin-7-yl)propanoic Acid] | 226 |  |
| 0.188 | Cc1ccc([C@@H](CC(=O)O)c2ccn3c(C(F)(F)F)nnc3c2C)cc1CN1CC2(CC2)Oc2ncccc2S1(=O)=O (single isomer, unassigned) [Example 8, (*R)-3-(3-((1′,1′-dioxidospiro[cyclopropane-1,4′-pyrido[2,3-b][1,4,5]oxathiazepin]-2′(3′H)-yl)methyl)-4-methylphenyl)-3-(8-methyl-3-(trifluoromethyl)-[1,2,4]triazolo[4,3-a]pyridin-7-yl)propanoic Acid] | 660 |  |
| < 1 | Cc1ccc([C@@H](c2ccn3c(C(F)(F)F)nnc3c2C)C(C)(C)C(=O)O)nc1CN1CC2(CCOCC2)Oc2nc(OCCN3CCOCC3)ccc2S1(=O)=O (single isomer, unassigned) [Example 325, (*S)-2,2-Dimethyl-3-(8-methyl-3-(trifluoromethyl)-[1,2,4]triazolo[4,3-a]pyridin-7-yl)-3-(5-methyl-6-((7′-(2-morpholinoethoxy)-1′,1′-dioxido-2,3,5,6-tetrahydrospiro[pyran-4,4′-pyrido[2,3-b][1,4,5]oxathiazepin]-2′(3′H)-yl)methyl)pyridin-2-yl)propanoic Acid] | 17.2 |  |
| < 1 | Cc1ccc([C@H](CC(=O)O)c2ccn3c(C(F)(F)F)nnc3c2C)cc1CN1C[C@H]2CCCN2c2ccccc2S1(=O)=O (single isomer, unassigned) [Example 266, (*S)-3-(3-(((R)-5,5-Dioxido-7a,8,9,10-tetrahydrobenzo[f]pyrrolo[2,1-d][1,2,5]thiadiazepin-6(7H)-yl)methyl)-4-methylphenyl)-3-(8-methyl-3-(trifluoromethyl)-[1,2,4]triazolo[4,3-a]pyridin-7-yl)propanoic Acid] | 14.6 |  |
| 7540 | Cc1ccc([C@H](c2ccn3c(C4CC4)nnc3c2C)C(C)(C)C(=O)O)cc1CN1CC2(CCOCC2)Oc2ncccc2S1(=O)=O (single isomer, unassigned) [Example 42, (*R)-3-(3-Cyclopropyl-8-methyl-[1,2,4]triazolo[4,3-a]pyridin-7-yl)-3-(3-((1′,1′-dioxido-2,3,5,6-tetrahydrospiro[pyran-4,4′-pyrido[2,3-b][1,4,5]oxathiazepin]-2′(3′H)-yl)methyl)-4-methylphenyl)-2,2-dimethylpropanoic Acid] | 3460 |  |
| < 1 | Cc1ccc(C(CC(=O)O)c2ccn3c(C(F)F)nnc3c2C)cc1CN1C[C@]2(C)CCCN2c2ncccc2S1(=O)=O (stereo in doubt) [Example 475, 3-(3-(Difluoromethyl)-8-methyl-[1,2,4]triazolo[4,3-a]pyridin-7-yl)-3-(4-methyl-3-(((*S)-7a-methyl-5,5-dioxido-7a,8,9,10-tetrahydropyrido[2,3-f]pyrrolo[2,1-d][1,2,5]thiadiazepin-6(7H)-yl)methyl)phenyl)propanoic Acid] | 406 |  |
| < 1 | Cc1ccc([C@@H](CC(=O)O)c2ccc3c(nnn3CC3CC3)c2C(F)F)cc1CN1C[C@H]2CCCCN2c2ncccc2S1(=O)=O (single isomer, unassigned) [Example 171, (*R)-3-(1-(Cyclopropylmethyl)-4-(difluoromethyl)-1H-benzo[d][1,2,3]triazol-5-yl)-3-(3-(((*R)-5,5-dioxido-7,7a,8,9,10,11-hexahydro-6H-dipyrido[2,1-d:2′,3′-f][1,2,5]thiadiazepin-6-yl)methyl)-4-methylphenyl)propanoic Acid] |  | 88 |
| 0.01 | Cc1c([C@@H](CC(=O)O)c2ccc(Cl)c(CN3CC4(COC4)Oc4ncccc4S3(=O)=O)c2)ccn2c(C(F)(F)F)nnc12 (single isomer, unassigned) [Example 88, (*S)-3-(4-Chloro-3-((1′,1′-dioxoidospiro[oxetane-3,4′-pyrido[2,3-b][1,4,5]oxathiazepin]-2′(3′H)-yl)methyl)phenyl)-3-(8-methyl-3-(trifluoromethyl)-[1,2,4]triazolo[4,3-a]pyridine-7-yl)propanoic Acid] | > 20000 |  |
| 2.4 | Cc1c(C(CC(=O)O)c2ccc(Cl)c(CN3CC4(COC4)Oc4ncccc4S3(=O)=O)c2)ccn2c(C(F)(F)F)nnc12 (stereo not shown) [Example 86, 3-(4-Chloro-3-((1′,1′-dioxoidospiro[oxetane-3,4′-pyrido[2,3-b][1,4,5]oxathiazepin]-2′(3′H)-yl)methyl)phenyl)-3-(8-methyl-3-(trifluoromethyl)-[1,2,4]triazolo[4,3-a]pyridine-7-yl)propanoic Acid] | 6240 |  |
| < 1 | Cc1ccc(C(CC(=O)O)c2ccn3c(C(F)F)nnc3c2C)cc1CN1C[C@@H]2CCCN2c2ncc(C#N)cc2S1(=O)=O (mixture of isomers) [Example 542, 3-(3-(((S)-3-Cyano-5,5-dioxido-7a,8,9,10-tetrahydropyrido[2,3-f]pyrrolo[2,1-d][1,2,5]thiadiazepin-6(7H)-yl)methyl)-4-methylphenyl)-3-(3-(difluoromethyl)-8-methyl-[1,2,4]triazolo[4,3-a]pyridin-7-yl)propanoic Acid] | 59.6 |  |
| 190 | Cc1ccc(C(CC(=O)O)c2ccn3c(C(F)(F)F)nnc3c2C)cc1CN1C[C@H]2CN(C)CCN2c2ncccc2S1(=O)=O (mixture of isomers) [Example 180, (R/S)-3-(4-Methyl-3-(((*R)-9-methyl-5,5-dioxido-7,7a,8,9,10,11-hexahydro-6H-pyrazino[2,1-d]pyrido[2,3-f][1,2,5]thiadiazepin-6-yl)methyl)phenyl)-3-(8-methyl-3-(trifluoromethyl)-[1,2,4]triazolo[4,3-a]pyridin-7-yl)propanoic Acid] | 2880 |  |
